These results are taken from patent US6642222B2, “Pyrano, piperidino, and thiopyrano compounds and methods of use” (Abbott Laboratories, priority 1998, dated 2003).

Each structure is given as a SMILES string.

For one test, the system named is Landrace Pig Bladder. As to the kind of experiment: Functional potassium channel opening activity in isolated bladder strips (field-stimulated twitch). The conditions noted are these: for Index: ED50 for P1075 divided by ED50 for the test agonist, averaged over tissues; for Emax / EC50: Sus scrofa; for Emax / Efficacy (% P1075): maximal efficacy relative to P1075, field stimulated bladder strips; for EC50 / pD2: negative logarithm of ED50; for EC50: read-out: pD2 (converted). As for the experimental part: Compounds were evaluated for functional potassium channel opening activity using tissue strips obtained from Landrace pig bladders. Landrace pig bladders were obtained from female Landrace pigs of 9-30 kg. Landrace pigs were euthanized with an intraperitoneal injection of pentobarbital solution, Somlethal®, J. A. Webster Inc. Sterling Mass. The entire bladder was removed and immediately placed into Krebs Ringer bicarbonate solution (composition, mM: NaCl, 120; […] Dextrose, 4.7; […] Propranolol (0.004 mM) was included in all of the assays to block β-adrenoceptors. The trigonal and dome portions were […], Strips 3-5 […] (mm) wide and 20 mm long were prepared from the remaining tissue cut in a circular fashion. The mucosal layer was removed. One end was fixed to a stationary glass rod and the other to a Grass FT03 transducer at a basal preload of 1.0 g. Two parallel platinum electrodes were included in the stationary glass trod to provide field stimulation of 0.05 Hz, 0.5 milli-seconds at 20 volts. […] Tissues were allowed to equilibrate for at least 60 minutes and primed with 80 mM KCl. A control concentration response curve (cumulative) was generated for each tissue using the potassium channel opener […] as the control agonist. […] After a 60 minute rinsing period, a concentration response curve (cumulative) was generated for the test agonist in the same fashion as that used for the control agonist […]. The maximal efficacy of each compounds (expressed as % relative to […]) is reported. The amount of agent necessary to cause 50% of the agent's maximal response (ED50) was calculated using “ALLFIT” (DeLean et al., Am. J. […] Agonist potencies were also expressed as an index relative to […]. The index was calculated by dividing the ED50 for […] by the ED50 for the test agonist in a given tissue. Each tissue was used for only one test agonist, and the indices obtained from each tissue were averaged to provide an average index of potency.

Test [1] concerns Guinea-Pig Bladder (GPB) Cells. Put plainly: Membrane Hyperpolarization (MHP) assay, DiBAC(4)3 / FLIPR. The conditions noted are these: for EC50: membrane hyperpolarization, GPB cells; for Emax: read-out: Maximal Response (% P1075), maximal steady-state hyperpolarization, normalized to 10 μM P1075 (100%); for Maximal Response (% P1075): maximal steady-state hyperpolarization, normalized to 10 μM P1075 (100%).
Description: Compounds were evaluated for potassium channel opening activity using primary cultured guinea-pig urinary bladder (GPB) cells.
For the preparation of urinary bladder smooth muscle cells, urinary bladders were removed from male guinea-pigs (Hartley, Charles River, Wilmington, Mass.) weighing 300-400 grams (g) and placed in ice-cold Ca^2+-free Krebs solution (Composition, millimolar (mM): KCl, 2.7; KH2PO4, 1.5; NaCl, 75; Na2HPO4, 9.6; Na2HPO4.7H2O, 8; MgSO4, 2; glucose, 5; HEPES, 10; pH 7.4). Cells were isolated by enzymatic dissociation (Klockner, U. and Isenberg, G., Pflugers Arch. (1985), 405, 329-339). The bladder was cut into small sections and incubated in 5 milliliters (mL) of the Kreb's solution containing 1 milligram per milliliter (mg/mL) of collagenase (Sigma, St. Louis, Mo.) and 0.2 mg/mL of pronase (Calbiochem, La Jolla, Calif.) with continuous stirring in a cell incubator for 30 minutes. The mixture was then centrifuged at 1300× g for 5 minutes, and the pellet resuspended in Dulbecco's phosphate buffered saline (PBS) (GIBCO, Gaithersburg, Md.) and recentrifuged to remove residual enzyme. The cell pellet was resuspended in 5 mL growth media (composition: Dulbecco's modified Eagle's medium supplemented with 10% fetal bovine serum, 100 units/mL penicillin, 100 units/mL streptomycin and 0.25 mg/mL amphotericin B) and further dissociated by pipetting the suspension through a flame-polished Pasteur pipette and passing it through a polypropylene mesh membrane (Spectrum, Houston, Tex.). The cell density was adjusted to 100,000 cells/mL by resuspension in growth media. Cells were plated in clear-bottomed black 96-well plates (Packard) for membrane potential studies at a density of 20,000 cells/well and maintained in a cell incubator with 90% air: 10% CO2 until confluent. Cells were confirmed to be of smooth muscle type by cytoskeletal staining using a monoclonal mouse anti human-α-smooth muscle actin (Biomeda, Foster City, Calif.).
Functional activity at potassium channels was measured by evaluating changes in membrane potential using the bis-oxonol dye DiBAC(4)3 (Molecular Probes) in a 96-well cell-based kinetic assay system using a Fluorescent Imaging Plate Reader (FLIPR) (K. S. Schroeder et al., J. Biomed. Screen., v. 1 pp. 75-81 (1996)). DiBAC(4)3 is an anionic potentiometric probe which partitions between cells and extracellular solution in a membrane potential-dependent manner. With increasing membrane potential (for example, K^+ depolarization), the probe further partitions into the cell; this is measured as an increase in fluorescence due to dye interaction with intracellular lipids and proteins. Conversely, decreasing membrane potential (hyperpolarization by potassium channel openers) evokes a decrease in fluorescence.
Confluent guinea-pig urinary bladder cells cultured in black clear-bottomed 96-well plates were rinsed twice with 200 mL assay buffer (composition, mM: HEPES, 20; NaCl, 120; KCl, 2; CaCl2, 2; MgCl2, 1; glucose, 5; pH 7.4 at 25° C.) containing 5 μM DiBAC(4)3 and incubated with 180 mL of the buffer in a cell incubator for 30 minutes at 37° C. to ensure dye distribution across the membrane. After recording the baseline fluorescence for 5 minutes, the reference or test compounds, prepared at 10 times the concentration in the assay buffer, were added directly to the wells. Changes in fluorescence were monitored for an additional 25 minutes.
Routinely, five concentrations of P1075 or test compounds (log or half-log dilutions) were evaluated and the maximal steady-state hyperpolarization values (expressed as % relative to P1075) plotted as a function of concentration. The EC50 (concentration that elicites 50% of the maximal response for the test sample) values were calculated by non-linear regression analysis using a four parameter sigmoidal equation. The maximal micromolar EC50 response of each compound (expressed as % relative to P1075) is reported.

Regarding `Cl.O=C1CCC2=C1C(c1ccc(F)c(Br)c1)C1=C(CNCC1=O)N2` (single isomer, unassigned; (+)) [Example 6, (+)-5-(3-bromo-4-fluorophenyl)-2,3,5,7,8,9-hexahydro-1H-cyclopenta[b][1,7]naphthyridine-4,6-dione Hydrochloride], the Index with Landrace Pig Bladder (Hydrochloride) is recorded as 0.022. The Emax in the test on Landrace Pig Bladder amounted to 100%; in test [1] (Cavia porcellus), 83%. The EC50 is 3980 nM in the test on Landrace Pig Bladder and 1000 nM in test [1] (Cavia porcellus).

On to `Cl.O=C1CCCC2=C1C(c1ccc(F)c(Br)c1)C1=C(CNCC1=O)N2` (single isomer, unassigned; (+)) [Example 8, (+)-5-(3-bromo-4-fluorophenyl)-2,3,5,8,9,10-hexahydrobenzo[b][1,7]naphthyridine-4,6(1H, 7H)-dione Hydrochloride], for which, in the test on Landrace Pig Bladder (Hydrochloride), the Index came to 0.023, the “Efficacy (% P1075)” value worked out at 90 % P1075 and the pD2 is 5.2. In addition, in test [1] (Hydrochloride), the “Maximal Response (% P1075)” value was found to be 33 % P1075 and the EC50 stood at 5000 nM.

As for `O=C1COCC2=C1C(c1ccc(F)c(Br)c1)C1=C(CCS1(=O)=O)N2` (single isomer, unassigned; (+)) [Example 12, (+)-9-(3-bromo-4-fluorophenyl)-2,3,5,9-tetrahydro-4H-pyrano[3,4-b]thieno[2,3-e]pyridin-8(7H)-one 1,1-dioxide], in the test with Landrace Pig Bladder, the Index was 3.3, the “Efficacy (% P1075)” value stood at 85 % P1075 and the pD2 stood at 7.2. Besides, in test [1], the “Maximal Response (% P1075)” value is listed as 101 % P1075 and the EC50 is 14 nM.

With `N#Cc1cccc(C2C3=C(COCC3=O)NC3=C2S(=O)(=O)CC3)c1` (single isomer, unassigned; (+)) [Example 15, (+)9-(3-cyanophenyl)-2,3,5,9-tetrahydro-4H-pyrano [3,4-b]thieno[2,3-e]pyridin-8(7H)-one 1,1-dioxide], in the test with Landrace Pig Bladder, the Index was 0.027, the Emax was determined as 100% and the EC50 is 2000 nM. Also, in test [1], the “Maximal Response (% P1075)” value is on record as 90 % P1075 and the EC50 is 640 nM.

In the test with Landrace Pig Bladder, `O=C1COCC2=C1C(c1ccc(Cl)c([N+](=O)[O-])c1)C1=C(CCS1(=O)=O)N2` (single isomer, unassigned; (+)) [Example 18, (+)-9-(4-chloro-3-nitrophenyl)-2,3,5,9-tetrahydro-4H-pyrano[3,4-b]thieno[2,3-e]pyridin-8(7H)-one 1,1-dioxide] yielded an Index of 1.6, an Emax of 100% and a pD2 of 7.3. In test [1], the “Maximal Response (% P1075)” value was determined as 95 % P1075 and the EC50 amounted to 58 nM.

In the test on Landrace Pig Bladder (Hydrochloride), `Cl.O=C1CCC2=C1C(c1ccc(F)c(Br)c1)C1=C(CNCC1=O)N2` (single isomer, unassigned; (-)) [Example 5, (−)-5-(3-bromo-4-fluorolphenyl)-2,3,5,7,8,9-hexahydro-1H-cyclopenta[b][1,7]naphthyridine-4,6-dione Hydrochloride] returned an Index of 0.16 and a pD2 of 6.4. Besides, in the test with Landrace Pig Bladder, the “Efficacy (% P1075)” value amounted to 100 % P1075. Also, in test [1] (Hydrochloride), the “Maximal Response (% P1075)” value was 97 % P1075 and the EC50 came to 190 nM.

In the test on Landrace Pig Bladder (Hydrochloride), `Cl.O=C1CCCC2=C1C(c1ccc(F)c(Br)c1)C1=C(CNCC1=O)N2` (single isomer, unassigned; (-)) [Example 7, (−)-5-(3-bromo-4-fluorophenyl)-2,3,5,8,9,10-hexahydrobenzo[b][1,7]naphthyridine-4,6(1H, 7H)-dione Hydrochloride] had an Index of 0.040 and a pD2 of 5.4. In the test on Landrace Pig Bladder, this compound displayed an Emax of 97%. In addition, in test [1] (Hydrochloride), the “Maximal Response (% P1075)” value is reported as 75 % P1075 and the EC50 worked out at 570 nM.

As for `O=C1COCC2=C1C(c1ccc(F)c(Br)c1)C1=C(CCS1(=O)=O)N2` (single isomer, unassigned; (-)) [Example 13, (−)-9-(3-bromo-4-fluorophenyl)-2,3,5,9-tetrahydro-4H-pyrano[3,4-b]thieno[2,3-e]pyridin-8(7H)-one 1,1-dioxide], in the test with Landrace Pig Bladder, the Index came to 0.13, the “Efficacy (% P1075)” value is on record as 98 % P1075 and the pD2 was determined as 5.9. Further, in test [1], the “Maximal Response (% P1075)” value is recorded as 101 % P1075 and the EC50 is 240 nM.

With `O=C1COCC2=C1C(c1ccc(Cl)c([N+](=O)[O-])c1)C1=C(CCS1(=O)=O)N2` (single isomer, unassigned; (-)) [Example 19, (−)-9-(4-chloro-3-nitrophenyl)-2,3,5,9-tetrahydro-4H-pyrano[3,4-b]thieno[2,3-e]pyridin-8(7H)-one 1,1-dioxide], in the test on Landrace Pig Bladder, the Index was determined as 0.70, the “Efficacy (% P1075)” value is on record as 100 % P1075 and the pD2 came to 6.0. Further, in test [1], the “Maximal Response (% P1075)” value was found to be 94 % P1075 and the EC50 worked out at 1800 nM.

Turning to `O=C1COCC2=C1C(c1ccc(F)c(Br)c1)C1=C(COCC1=O)N2` [Example 1, 5-(3-bromo-4-fluorophenyl)-5,10-dihydro-1H,3H-dipyrano[3,4-b:4,3-e]pyridine-4,6(7H,9H)-dione], in the test on Landrace Pig Bladder, the Index came to 0.36, the “Efficacy (% P1075)” value came out at 97 % P1075 and the pD2 amounted to 6.9. In test [1], the “Maximal Response (% P1075)” value came out at 96 % P1075 and the EC50 came to 27 nM.

Turning to `Cl.O=C1CCCC2=C1C(c1ccc(F)c(Br)c1)C1=C(CNCC1=O)N2` (centres unmarked) [Example 2, 5-(3-bromo-4-fluorophenyl)-2,3,5,8,9,10-hexahydrobenzo [b][1,7]naphthyridine-4,6(1H, 7H)-dione Hydrochloride], in the test with Landrace Pig Bladder (Hydrochloride), the Index stood at 0.041, the “Efficacy (% P1075)” value was found to be 99 % P1075 and the pD2 was 5.8. Further, in test [1] (Hydrochloride), the “Maximal Response (% P1075)” value amounted to 88 % P1075 and the EC50 is 650 nM.

With `Cl.O=C1CNCC2=C1C(c1ccc(F)c(Br)c1)C1=C(CCCS1(=O)=O)N2` (centres unmarked) [Example 9, 10-(3-bromo-4-fluorophenyl)-3,4,6,7,8,10-hexahydro-2H-thiopyrano[3,2-b][1,7]naphthyridin-9(5H)-one 1,1-dioxide Hydrochloride], in the test with Landrace Pig Bladder, the Index is on record as 0.0015, the Emax was 82% and the EC50 is 126000 nM. Moreover, in test [1] (Cavia porcellus), the EC50 was found to be 2600 nM and the Emax was found to be 89%.

`Cl.O=C1CNCC2=C1C(c1ccc(F)c(Br)c1)C1=C(CCS1(=O)=O)N2` (centres unmarked) [Example 10, 9-(3-Bromo-4-fluorophenyl)-2,3,5,6,7,9-hexahydrothieno [3,2-b][1,7]naphthyridin-8(4H)-one, 1,1-dioxide hydrochloride]: in the test on Landrace Pig Bladder, the Index worked out at 0.0028, the “Efficacy (% P1075)” value is 96 % P1075 and the pD2 is given as 4.3. Besides, in test [1], the “Maximal Response (% P1075)” value was 87 % P1075 and the EC50 amounted to 1400 nM.

In the test with Landrace Pig Bladder, `O=C1COCC2=C1C(c1ccc(F)c(Br)c1)C1=C(CCS1(=O)=O)N2` (centres unmarked) [Example 11, 9-(3-bromo-4-fluorophenyl)-2,3,5,9-tetrahydro-4H-pyrano[3,4-b]thieno[2,3-e]pyridin-8(7H)-one 1,1-dioxide] yielded an Index of 1.2, an Emax of 91% and a pD2 of 6.8. In test [1] (Cavia porcellus), the Emax amounted to 104%. For the same compound, in test [1], the EC50 came out at 23 nM.

Regarding `O=C1CCCC2=C1C(c1ccc(F)c(Br)c1)C1=C(COCC1=O)N2` (centres unmarked) [Example 20, 5-(3-bromo-4-fluorophenyl)-5,8,9,10-tetrahydro-1H-pyrano[3,4-b]quinoline-4,6(3H, 7H)-dione], in the test on Landrace Pig Bladder, the Index was found to be 0.43, the Emax was 93% and the EC50 was 2510 nM. For the same compound, in test [1] (Cavia porcellus), the EC50 came out at 35 nM and the Emax was 93%.

As for `O=C1COCC2=C1C(c1ccc(F)c(Br)c1)C1=C(CSCC1=O)N2` (centres unmarked) [Example 22, 5-(3-bromo-4-fluorophenyl)-5,10-dihydro-1H,3H-pyrano[3,4-b]thiopyrano[4,3-e]pyridine-4,6(7H,9H)-dione], in the test with Landrace Pig Bladder, the Index is on record as 0.027, the Emax was 100% and the EC50 is 2510 nM. Besides, in test [1] (Cavia porcellus), the EC50 stood at 46 nM and the Emax came out at 85%.
